Experimental data published in ChEMBL document CHEMBL5244255, “An insight on medicinal attributes of 1,2,4-triazoles” (Eur J Med Chem, 2020).
Converted amounts (≈) assume the structure as drawn.

Tests used:
Cytomegalovirus [1] = experiment: Potency index, ratio of ganciclovir IC50 to test compound IC50 for antiviral activity against Cytomegalovirus; assay type: functional
Cytomegalovirus [2] = experiment: Antiviral activity against Cytomegalovirus infected in HFF cells […]; assay type: functional, organism-based; conditions: Human betaherpesvirus 5, HFF
MDA-MB-231 = experiment: Antiproliferative activity against human MDA-MB-231 cells assessed as cell growth inhibition by MTT assay; assay type: functional, cell-based
A549 [3] = experiment: Antiproliferative activity against human A549 cells assessed as cell growth inhibition by MTT assay; assay type: functional, cell-based
K562 = experiment: Antiproliferative activity against human K562 cells assessed as cell growth inhibition by MTT assay; assay type: functional, cell-based
[4] = target: T1, Vascular endothelial growth factor receptor 2 (Homo sapiens, UniProt P35968); experiment: Inhibition of human VEGFR2 (unknown origin) incubated for 1 hrs in presence of ATP by ELISA assay
[5] = target: Hepatocyte growth factor receptor (Homo sapiens, UniProt P08581); experiment: Inhibition of c-Met (unknown origin) incubated for 1 hrs in presence of ATP by ELISA assay
Rattus norvegicus [6] = experiment: Antiinflammatory activity in rat assessed as reduction in xylene induced edema relative to control; assay type: functional; parameters: scale not given: the % may be the effect or the level left
Rattus norvegicus [7] = experiment: Antiinflammatory activity in rat assessed as reduction in edema at 5 to 20 mg/kg, po measured after 5 hrs relative to control; assay type: functional; parameters: scale not given: the % may be the effect or the level left; conditions: dose 5-20 mg/kg
Leishmania infantum = experiment: Antileishmanial activity against Leishmania infantum measured after 20 mins; assay type: functional
Mus musculus [8] = experiment: Anticonvulsant activity in ip dosed mouse assessed as protection against PTZ-induced seizure; assay type: functional
Mus musculus [9] = experiment: Anticonvulsant activity in ip dosed mouse assessed as MES-induced seizures; assay type: functional
[10] = Protection index, ratio of TD50 for neurotoxicity in ip dosed mouse to ED50 for anticonvulsant activity in ip dosed mouse; assay type: toxicity, organism-based; conditions: in vivo, read-out: Ratio TD50/ED50
[11] = target: Bifunctional dihydrofolate reductase-thymidylate synthase (Plasmodium vivax, UniProt O02604); experiment: Inhibition of Plasmodium vivax dihydrofolate reductase measured after 48 hrs
[12] = Inhibition of Plasmodium falciparum dihydrofolate reductase measured after 48 hrs
Mus musculus [13] = experiment: Anticonvulsant activity in ip dosed mouse assessed as neurotoxicity measured after 15 mins; assay type: functional; conditions: 0.25 h
A549 [14] = experiment: Anticancer activity against human A549 cells assessed as cell growth inhibition incubated for 48 hrs by CCK8 assay; assay type: functional, cell-based; conditions: A549, 48 h
HCT-116 [15] = experiment: Antiproliferative activity against human HCT-116 cells assessed as cell viability incubated for 48 hrs by MTT assay; conditions: HCT-116, 48 h
NCI-H460 = experiment: Anticancer activity against human NCI-H460 cells assessed as cell growth inhibition incubated for 48 hrs by SRB assay; assay type: functional
A498 = experiment: Anticancer activity against human A498 cells assessed as cell growth inhibition incubated for 48 hrs by SRB assay; assay type: functional
LOX IMVI = experiment: Anticancer activity against human LOX IMVI cells assessed as cell growth inhibition incubated for 48 hrs by SRB assay; assay type: functional
HOP-92 = experiment: Anticancer activity against human HOP-92 cells assessed as cell growth inhibition incubated for 48 hrs by SRB assay; assay type: functional
HCT-116 [16] = experiment: Anticancer activity against human HCT-116 cells assessed as cell growth inhibition incubated for 48 hrs by SRB assay; assay type: functional
U-251 = experiment: Anticancer activity against human U-251 cells assessed as cell growth inhibition incubated for 48 hrs by SRB assay; assay type: functional
PC-3 [17] = experiment: Anticancer activity against human PC-3 cells assessed as cell growth inhibition incubated for 24 hrs by MTS assay; assay type: functional, cell-based; conditions: PC-3, 24 h
DU-145 [18] = experiment: Anticancer activity against human DU-145 cells assessed as cell growth inhibition incubated for 24 hrs by MTS assay; assay type: functional, cell-based; conditions: DU-145, 24 h
LNCaP = experiment: Anticancer activity against human LNCaP cells assessed as cell growth inhibition incubated for 24 hrs by MTS assay; assay type: functional, cell-based
A549 [19] = experiment: Anticancer activity against human A549 cells assessed as cell growth inhibition incubated for 24 hrs by MTT assay; assay type: functional, cell-based; conditions: A549, 24 h
HCT-116 [20] = experiment: Anticancer activity against human HCT-116 cells assessed as cell growth inhibition incubated for 24 hrs by MTT assay; assay type: functional, cell-based; conditions: HCT-116, 24 h
PC-3 [21] = experiment: Anticancer activity against human PC-3 cells assessed as cell growth inhibition incubated for 24 hrs by MTT assay; assay type: functional, cell-based; conditions: PC-3, 24 h
MCF7 [22] = experiment: Anticancer activity against human MCF7 cells assessed as cell growth inhibition incubated for 24 hrs by MTT assay; assay type: functional, cell-based; conditions: MCF7, 24 h
[23] = target: T1, Vascular endothelial growth factor receptor 2; experiment: Inhibition of human VEGFR2 using biotinylated poly-GluTyr as substrate at 117 ng/ml incubated for 24 hrs in presence of ATP by ELISA assay relative to control
MCF7 [24] = experiment: Anticancer activity against human MCF7 cells assessed a cell growth inhibition incubated for 48 hrs by SRB assay; assay type: functional, cell-based; conditions: MCF7, 48 h
HepG2 = experiment: Antiproliferative activity against human HepG2 cells assessed as cell viability incubated for 72 hrs by MTT assay; assay type: functional, cell-based; conditions: HepG2, 72 h
MCF7 [25] = experiment: Antiproliferative activity against human MCF7 cells assessed as cell viability incubated for 48 hrs by MTT assay; assay type: functional, cell-based; conditions: MCF7, 48 h
[26] = Inhibition of Plasmodium falciparum dihydrofolate reductase
Trypanosoma brucei = experiment: […] activity against Trypanosoma brucei assessed as […] growth inhibition; assay type: functional, organism-based
Human alphaherpesvirus 1 [27] = experiment: Antiviral activity against Human alphaherpesvirus 1 infected in African green monkey Vero kidney cells assessed as plaque reduction at 80 uM relative to control; assay type: functional; parameters: scale not given: the % may be the effect or the level left
[28] = Inhibition of Mycobacterium tuberculosis Shikimate dehydrogenase […]; assay type: functional
[29] = Oral bioavailability in mouse relative to control; assay type: ADME, organism-based; conditions: in vivo
Cytomegalovirus [30] = experiment: Potency index, ratio of test compound IC50 to ganciclovir IC50 for antiviral activity against Cytomegalovirus; assay type: functional
SMMC-7721 = experiment: Anticancer activity against human SMMC-7721 cells assessed as cell growth inhibition incubated for 48 hrs by CCK8 assay; assay type: functional, cell-based; conditions: SMMC-7721, 48 h
Human alphaherpesvirus 1 [31] = experiment: Antiviral activity against Human alphaherpesvirus 1 assessed as plaque reduction at […] relative to control; assay type: functional; parameters: dose or concentration left out as unconfirmed
PC-3 [32] = experiment: Anticancer activity against human PC-3 cells assessed as cell growth inhibition; assay type: functional, cell-based
[33] = system: Japanese encephalitis virus; experiment: Antiviral activity against Japanese encephalitis virus; assay type: functional; conditions: read-out: ED50 (the source's name)
A549 [34] = experiment: Anticancer activity against human A549 cells assessed as cell growth inhibition incubated for 48 hrs by MTT assay; assay type: functional, cell-based; conditions: A549, 48 h
[35] = Anticancer activity against human SK-MEL-128 cells assessed as cell growth inhibition incubated for 48 hrs by MTT assay; assay type: functional, cell-based; conditions: SK-MEL-128, 48 h
BT-20 [36] = experiment: Anticancer activity against human BT-20 cells assessed as cell growth inhibition incubated for 48 hrs by MTT assay; assay type: functional, cell-based; conditions: BT-20, 48 h
BT-20 [37] = experiment: Potency index, ratio of test compound IC50 to cisplatin IC50 for antiproliferative against human BT-20 cells; assay type: functional
DU-145 [38] = experiment: Anticancer activity against human DU-145 cells assessed as cell growth inhibition incubated for 48 hrs by MTT assay; assay type: functional, cell-based; conditions: DU-145, 48 h
HeLa = experiment: Antiproliferative activity against human HeLa cells assessed as cell growth inhibition by MTT assay; assay type: functional, cell-based

T1 sequence (P35968 whole entry): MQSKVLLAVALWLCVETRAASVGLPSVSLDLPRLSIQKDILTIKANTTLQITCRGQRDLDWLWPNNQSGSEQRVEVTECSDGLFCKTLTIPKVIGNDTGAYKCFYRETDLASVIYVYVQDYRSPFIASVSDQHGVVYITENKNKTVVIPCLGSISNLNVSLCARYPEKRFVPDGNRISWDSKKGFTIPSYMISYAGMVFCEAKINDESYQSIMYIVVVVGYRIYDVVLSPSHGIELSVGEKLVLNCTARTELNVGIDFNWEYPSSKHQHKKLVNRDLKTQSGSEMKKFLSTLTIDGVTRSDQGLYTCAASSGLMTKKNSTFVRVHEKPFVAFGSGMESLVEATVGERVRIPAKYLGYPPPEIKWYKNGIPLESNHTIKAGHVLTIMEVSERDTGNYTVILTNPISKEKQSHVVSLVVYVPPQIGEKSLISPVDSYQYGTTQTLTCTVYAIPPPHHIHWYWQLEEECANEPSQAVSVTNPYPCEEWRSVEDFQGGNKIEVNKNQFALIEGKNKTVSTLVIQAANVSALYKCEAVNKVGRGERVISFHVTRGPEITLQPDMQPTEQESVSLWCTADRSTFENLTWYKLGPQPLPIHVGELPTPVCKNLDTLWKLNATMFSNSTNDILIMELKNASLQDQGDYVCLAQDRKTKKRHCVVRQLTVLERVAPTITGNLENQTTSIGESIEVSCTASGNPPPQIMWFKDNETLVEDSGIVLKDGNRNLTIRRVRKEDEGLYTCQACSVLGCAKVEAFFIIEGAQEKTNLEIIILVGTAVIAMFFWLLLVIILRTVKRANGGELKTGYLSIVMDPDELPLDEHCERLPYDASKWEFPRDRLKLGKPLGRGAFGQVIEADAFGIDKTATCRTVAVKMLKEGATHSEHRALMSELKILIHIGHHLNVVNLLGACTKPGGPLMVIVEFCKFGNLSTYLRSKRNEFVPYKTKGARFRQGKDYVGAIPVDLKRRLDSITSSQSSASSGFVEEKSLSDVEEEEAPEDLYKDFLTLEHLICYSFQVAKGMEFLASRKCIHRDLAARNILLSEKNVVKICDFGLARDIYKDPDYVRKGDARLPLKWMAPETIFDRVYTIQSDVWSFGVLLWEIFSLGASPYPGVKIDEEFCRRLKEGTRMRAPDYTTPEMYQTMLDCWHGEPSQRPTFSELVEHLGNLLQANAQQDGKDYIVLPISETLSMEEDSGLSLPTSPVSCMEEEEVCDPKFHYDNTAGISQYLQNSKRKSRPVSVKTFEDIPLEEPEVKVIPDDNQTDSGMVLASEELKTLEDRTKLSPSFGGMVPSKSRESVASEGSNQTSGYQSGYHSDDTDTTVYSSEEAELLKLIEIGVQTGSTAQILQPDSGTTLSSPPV
Sequence of Bifunctional dihydrofolate reductase-thymidylate synthase (O02604 whole entry): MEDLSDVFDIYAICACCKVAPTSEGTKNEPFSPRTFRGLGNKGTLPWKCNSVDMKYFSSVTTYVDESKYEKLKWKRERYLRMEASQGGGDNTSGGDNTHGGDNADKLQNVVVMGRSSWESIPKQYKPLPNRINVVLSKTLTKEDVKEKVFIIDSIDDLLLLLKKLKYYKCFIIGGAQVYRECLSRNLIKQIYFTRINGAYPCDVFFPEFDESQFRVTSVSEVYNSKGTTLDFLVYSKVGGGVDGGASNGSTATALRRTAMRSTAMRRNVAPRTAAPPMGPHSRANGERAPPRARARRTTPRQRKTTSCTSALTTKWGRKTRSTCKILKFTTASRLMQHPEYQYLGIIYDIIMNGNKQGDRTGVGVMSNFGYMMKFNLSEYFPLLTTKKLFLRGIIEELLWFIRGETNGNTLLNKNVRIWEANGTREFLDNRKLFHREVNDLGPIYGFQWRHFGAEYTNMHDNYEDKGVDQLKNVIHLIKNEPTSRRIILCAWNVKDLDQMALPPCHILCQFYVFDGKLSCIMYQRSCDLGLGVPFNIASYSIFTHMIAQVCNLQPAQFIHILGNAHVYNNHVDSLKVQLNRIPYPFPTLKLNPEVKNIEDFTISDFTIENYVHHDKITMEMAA
Sequence of Hepatocyte growth factor receptor (P08581 whole entry): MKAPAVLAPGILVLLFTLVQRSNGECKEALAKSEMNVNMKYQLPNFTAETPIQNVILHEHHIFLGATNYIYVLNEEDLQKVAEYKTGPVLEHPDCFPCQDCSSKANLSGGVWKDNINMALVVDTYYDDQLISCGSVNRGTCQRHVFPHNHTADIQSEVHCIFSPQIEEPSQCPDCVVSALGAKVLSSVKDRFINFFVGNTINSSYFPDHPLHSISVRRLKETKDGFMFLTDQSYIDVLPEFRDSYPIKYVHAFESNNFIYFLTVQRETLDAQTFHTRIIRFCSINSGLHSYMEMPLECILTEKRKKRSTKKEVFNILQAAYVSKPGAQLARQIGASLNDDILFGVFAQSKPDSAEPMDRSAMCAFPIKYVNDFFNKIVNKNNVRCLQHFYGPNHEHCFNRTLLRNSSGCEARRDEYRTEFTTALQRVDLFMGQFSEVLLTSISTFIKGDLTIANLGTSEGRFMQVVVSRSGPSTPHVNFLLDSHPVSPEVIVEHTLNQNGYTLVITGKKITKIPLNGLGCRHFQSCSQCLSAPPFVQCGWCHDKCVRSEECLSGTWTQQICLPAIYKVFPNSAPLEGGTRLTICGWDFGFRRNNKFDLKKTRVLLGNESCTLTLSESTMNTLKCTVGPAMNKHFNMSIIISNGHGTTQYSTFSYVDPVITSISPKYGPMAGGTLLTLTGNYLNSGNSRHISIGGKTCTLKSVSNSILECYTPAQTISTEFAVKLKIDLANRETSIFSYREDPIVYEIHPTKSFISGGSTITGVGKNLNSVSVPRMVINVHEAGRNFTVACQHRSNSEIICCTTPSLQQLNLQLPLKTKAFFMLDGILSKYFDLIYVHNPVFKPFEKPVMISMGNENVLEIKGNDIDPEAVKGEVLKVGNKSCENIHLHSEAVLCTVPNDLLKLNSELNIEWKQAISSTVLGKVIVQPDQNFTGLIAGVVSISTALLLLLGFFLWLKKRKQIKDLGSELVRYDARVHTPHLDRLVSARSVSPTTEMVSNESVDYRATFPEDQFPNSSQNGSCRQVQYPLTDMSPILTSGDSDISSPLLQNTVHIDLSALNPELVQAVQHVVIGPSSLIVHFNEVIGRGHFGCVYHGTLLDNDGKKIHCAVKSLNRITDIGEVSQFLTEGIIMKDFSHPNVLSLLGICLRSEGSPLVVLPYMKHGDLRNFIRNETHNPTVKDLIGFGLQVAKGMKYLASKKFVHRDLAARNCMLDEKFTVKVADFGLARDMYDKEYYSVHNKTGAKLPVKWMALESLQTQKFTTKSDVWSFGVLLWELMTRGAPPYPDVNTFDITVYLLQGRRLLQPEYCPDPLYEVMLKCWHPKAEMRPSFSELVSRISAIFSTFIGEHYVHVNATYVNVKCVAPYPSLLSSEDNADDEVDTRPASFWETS

Structure (SMILES): Nc1nc2c(ncn2COC(CO)CO)c(=O)[nH]1 [GANCICLOVIR]
- Ratio IC50 (Cytomegalovirus [1]): >256
- IC50 (Cytomegalovirus [2]): 590 nM

Structure (SMILES): Cc1nn(-c2ccc(Br)cc2)c(=O)n1-n1c(-c2cc3ccccc3oc2=O)cs/c1=N\c1ccc(Cl)cc1
- IC50 (MDA-MB-231): 0.16 µg/mL (≈ 0.264 µM)
- IC50 (A549 [3]): 0.16 µg/mL (≈ 0.264 µM)
- IC50 (K562): 0.16 µg/mL (≈ 0.264 µM)

Structure (SMILES): Cc1c(C(=O)Nc2ccc(Oc3ccnc(-c4nncn4CN4CCN(C)CC4)c3)c(F)c2)c(=O)n(-c2ccccc2)n1C
- IC50 [4]: 190 nM
- IC50 [5]: 110 nM

Structure (SMILES): O=c1c2sccc2n2cnnc2n1-c1ccc(Cl)cc1
- Activity (Rattus norvegicus [6]): 50.48%

Structure (SMILES): O=C(CSc1nncn1CC(=O)N/N=C/c1ccc(O)cc1)N/N=C/c1ccc(O)cc1
- Activity (Rattus norvegicus [7]): 64.44%

Structure (SMILES): Nn1c(S)nnc1Cn1nc(Cc2cccs2)n(N)c1=O
- MIC (Leishmania infantum): 625 µg/mL (≈ 1930 µM)

Structure (SMILES): Fc1ccc(-c2csc3nncn23)cc1
- ED50 (Mus musculus [8]): 49.1 mg/kg
- ED50 (Mus musculus [9]): 49.1 mg/kg
- selectivity ratio [10]: 1.7

Structure (SMILES): CC1=NC2NC(CC(F)(F)F)=NN2C(Nc2ccc(C(F)(F)F)nc2)=C1 (stereo not drawn)
- IC50 [11]: 94 nM
- IC50 [12]: 53 nM

Structure (SMILES): Fc1ccc(-n2c(-c3cccc(Cl)c3)n[nH]c2=S)cc1
- TD50 (Mus musculus [13]): 137 mg/kg
- selectivity ratio [10]: 3.9

Structure (SMILES): CCCCSSc1nnc(-c2ccccc2)n1N
- IC50 (A549 [14]): 2790 nM

Structure (SMILES): CSc1nc(NC(=S)NCc2ccccc2)n(-c2ccc(C(=O)O)cc2)n1
- IC50 (HCT-116 [15]): 15.6 µM

Structure (SMILES): Clc1ccccc1-c1nnc2c(Cc3ccccc3)nc3ccccc3n12
- GI50 (NCI-H460): 3.45 µM
- GI50 (A498): 1800 nM
- GI50 (LOX IMVI): 5.18 µM
- GI50 (HOP-92): 3.91 µM
- GI50 (HCT-116 [16]): 3.49 µM
- GI50 (U-251): 1960 nM

Structure (SMILES): COc1ccc2cc(C(C)c3nnc(SCC(=O)N/N=C/c4cc([N+](=O)[O-])ccc4-c4ccco4)n3-c3ccc(F)cc3)ccc2c1 (stereo not drawn)
- IC50 (PC-3 [17]): 26 µM
- IC50 (DU-145 [18]): 34.5 µM
- IC50 (LNCaP): 48.8 µM

Structure (SMILES): CC1CNCC(C)N1c1ccc(Nc2nccc(N3CCn4c(nnc4-c4ccc(F)c(Cl)c4)C3)n2)cc1 (stereo not drawn)
- IC50 (A549 [19]): 2140 nM
- IC50 (HCT-116 [20]): 3.59 µM
- IC50 (PC-3 [21]): 5.52 µM
- IC50 (MCF7 [22]): 3.69 µM

Structure (SMILES): O=c1nc2c3c(ncn2[nH]1)Oc1c(c(=O)oc2ccccc12)C3c1ccc(F)cc1 (stereo not drawn)
- inhibition [23]: 94%
- IC50 (MCF7 [24]): 7.9 µg/mL (≈ 19.6 µM)

Structure (SMILES): CCc1nnc2c(Nc3ccc(C(=O)/C=C/c4cc(OC)c(OC)c(OC)c4)cc3)nc3ccccc3n12
- IC50 (HepG2): 8.58 µM

Structure (SMILES): O=C(O)c1ccc(-n2nc(Oc3ccccc3)nc2NC(=S)NC(=O)c2ccccc2)cc1
- IC50 (MCF7 [25]): 23.9 µM

Structure (SMILES): CC1=C(C(=O)Nc2ccc(Br)cn2)C(c2cn(-c3ccccc3)nc2-c2ccc(Cl)cc2)n2ncnc2N1 (stereo not drawn)
- IC50 [26]: 0.023 µg/mL (≈ 0.0391 µM)

Structure (SMILES): Cc1nc(C)c(C(=O)Nc2ccc(F)c(-c3nc4ncc(C(C)(C)C)cn4n3)c2)o1
- EC50 (Trypanosoma brucei): 30 nM

Structure (SMILES): CCOC(=O)CSc1nc2n(n1)C(=O)C(CCCl)C(C)N2 (stereo not drawn)
- Activity (Human alphaherpesvirus 1 [27]): 50%

Structure (SMILES): COc1ccc(OCc2nn3c(-c4ccc(Br)cc4)nnc3s2)cc1
- log(activity) [28]: 1.7
- bioavailability [29]: 14%

Structure (SMILES): Cc1cc2nc(Cc3nncn3-c3ccccn3)c(=O)[nH]c2cc1C
- Ratio IC50 (Cytomegalovirus [30]): >3000
- IC50 (Cytomegalovirus [2]): < 50 nM

Structure (SMILES): CC(C)SSc1nnc(-c2ccccc2)n1N
- IC50 (SMMC-7721): 2970 nM

Structure (SMILES): Cc1ccc2nc(Cl)c3nnc(NC(=S)Nc4ccccc4)n3c2c1
- Activity (Human alphaherpesvirus 1 [31]): 25%

Structure (SMILES): O=C(CSc1nnc2n(Cc3ccccc3)c(=O)c3c4c(sc3n12)CCCC4)N1CCN(c2ccccc2)CC1
- IC50 (PC-3 [32]): 5.48 µM

Structure (SMILES): CN1C(=O)c2ccccc2N(c2cccc(-c3nnc4n3NC(c3ccccc3)=C(c3ccccc3)S4)c2)C1c1ccccc1 (stereo not drawn)
- EC50 [33]: 7.8 µg/mL (≈ 12.9 µM)

Structure (SMILES): CCN(CC)c1ccc2cc(C(=O)NNC(=O)Cn3nc(Cc4cccc(Br)c4)n(N)c3=O)c(=O)oc2c1
- IC50 (A549 [34]): 3.1 µg/mL (≈ 5.3 µM)
- IC50 [35]: 3.1 µg/mL (≈ 5.3 µM)
- IC50 (BT-20 [36]): 3.1 µg/mL (≈ 5.3 µM)
- Ratio IC50 (BT-20 [37]): 2.7
- IC50 (DU-145 [38]): 3.1 µg/mL (≈ 5.3 µM)
- IC50 (HeLa): 0.16 µg/mL (≈ 0.274 µM)
